# What was measured:
# E. faecium ATCC 6057 = assay: Antibacterial activity: MIC/MBC determination and disc-diffusion; type: cell-based; conditions: Enterococcus faecium, ATCC6057, E. faecium ATCC 6057; for MIC: read-out: MIC
# Protocol: (§1) Direct antimicrobial activity was determined against the following standard strains: (1) Gram-positive cocci: methicillin-sensitive Staphylococcus aureus ATCC 6538P (MSSA), methicillin-resistant S. aureus subsp. aureus ATCC 43300 (MRSA), S. epidermidis ATCC 12228, Enterococcus faecium ATCC 6057, E. faecalis ATCC 29212, Bacillus subtilis ATCC 6633; (2) Gram-negative bacteria from Enterobacteriales order: Klebsiella pneumoniae ATCC 13883, Escherichia coli ATCC 25922, Enterobacter cloacae DSM 6234, Proteus mirabilis ATCC 12453, Serratia marcescens ATCC 13880; (3) Gram-negative non-fermentative rods: Acinetobacter baumannii ATCC 19606, Pseudomonas aeruginosa ATCC 27853, Stenotrophomonas maltophilia ATCC 12714, S. maltophilia ATCC 13637, Burkholderia cepacia ATCC 25416, Bordetella bronchiseptica ATCC 4617; (4) yeasts: Candida albicans ATCC 90028, C. krusei ATCC 6258, C. parapsilosis ATCC 22019, C. tropicalis (Castellani) Berkhout ATCC 750, C. tropicalis IBA 171, C. guilliermondii IBA 155, and Saccharomyces cerevisiae ATCC 9763. Moreover, 5 clinical strains of methicillin-resistant S. aureus were also included: NMI 664 K, NMI 1576 K, NMI 1712 K, NMI 1991 K, and NMI 2541 K. All strains were stored at −80 °C. Prior to testing, each bacterial strain was subcultured twice on tryptic soy agar TSA (bioMerieux) medium and yeast strains on Sabouraud dextrose agar (bioMerieux) for 24–48 h at 30 °C to ensure viability. The antimicrobial activity was evaluated as previously described[26] by the disc-diffusion method and the MIC determination assays according to the EUCAST (ref. [71] and [72]) and CLSI (ref. [53] and [73]) recommendations. Assessment of bactericidal (MBC) and fungicidal (MFC) activities was performed according to the CLSI recommendations.[54,74] The following reference agents were used: fluconazole (in the case of fungi), linezolid (for Gram-positive bacteria), and nitrofurantoin (for Gram-negative rods). The new benzosiloxaboroles were dissolved in DMSO (Sigma).
# [1] = system: S. aureus ATCC 43300 MRSA; assay: as above; type: cell-based; conditions: Staphylococcus aureus, S. aureus ATCC 43300 MRSA; for MBC: read-out: MBC (first MBC where Eagle effect); for MIC: read-out: MIC
# Protocol: as §1
# E. coli ATCC 25922 = assay: Antibacterial activity: MIC/MBC, MIC with PAβN, disc-diffusion; type: cell-based, Escherichia coli; conditions: E. coli ATCC 25922; for MIC: Escherichia coli, ATCC25922, read-out: MIC; for -fold reduction of MIC in the presence of PAβN: PAβN 20 μg mL^−1, MHB + 1 mM MgSO4
# Protocol: as §1, with “The following reference agents were used: fluconazole (in the case of fungi), linezolid (for Gram-positive bacteria), and nitrofurantoin (for Gram-negative rods).” left out
# (§2) Considering that the MDR efflux pumps often contribute to Gram-negative rod resistance, the MIC values of studied agents, with or without the pump inhibitor, PAβN (20 μg mL^−1) (Sigma), were determined.[75] The MIC was determined using Mueller–Hinton II broth medium (MHB) (Becton Dickinson) by the broth microdilution method, according to the CLSI guideliness.[53] To minimize the influence of PAβN on the destabilization of bacterial cell covers, the tests were conducted in the presence of 1 mM MgSO4 (Sigma).[76] At least a 4-fold reduction in the MIC value after the addition of PAβN was considered significant.[56,77]
# P. mirabilis ATCC 12453 = assay: as above; type: cell-based, Proteus mirabilis; conditions: Proteus mirabilis, ATCC12453; P. mirabilis ATCC 12453; read-out: MIC
# Protocol: as §1, with “The following reference agents were used: fluconazole (in the case of fungi), linezolid (for Gram-positive bacteria), and nitrofurantoin (for Gram-negative rods).” left out
# as §2
# E. cloacae DSM 6234 = assay: as above; type: cell-based, Enterobacter cloacae; conditions: E. cloacae DSM 6234; for MIC: Enterobacter cloacae, DSM6234, read-out: MIC
# Protocol: as §1, with “The following reference agents were used: fluconazole (in the case of fungi), linezolid (for Gram-positive bacteria), and nitrofurantoin (for Gram-negative rods).” left out
# as §2
# S. marcescens ATCC 13880 = assay: as above; type: cell-based, Serratia marcescens; conditions: Serratia marcescens, ATCC13880; S. marcescens ATCC 13880; read-out: MIC
# Protocol: as §1, with “The following reference agents were used: fluconazole (in the case of fungi), linezolid (for Gram-positive bacteria), and nitrofurantoin (for Gram-negative rods).” left out
# as §2
# [2] = system: S. maltophilia ATCC 12714; assay: as above; type: cell-based, Stenotrophomonas maltophilia; conditions: S. maltophilia ATCC 12714; for MIC: Stenotrophomonas maltophilia, ATCC12714, read-out: MIC
# Protocol: as §1, with “The following reference agents were used: fluconazole (in the case of fungi), linezolid (for Gram-positive bacteria), and nitrofurantoin (for Gram-negative rods).” left out
# as §2
# [3] = system: S. maltophilia ATCC 13637; assay: as above; type: cell-based, Stenotrophomonas maltophilia; conditions: S. maltophilia ATCC 13637; for MIC: Stenotrophomonas maltophilia, ATCC13637, read-out: MIC; for -fold reduction of MIC in the presence of PAβN: PAβN 20 μg mL^−1, MHB + 1 mM MgSO4
# Protocol: as §1, with “The following reference agents were used: fluconazole (in the case of fungi), linezolid (for Gram-positive bacteria), and nitrofurantoin (for Gram-negative rods).” left out
# as §2
# B. cepacia ATCC 25416 = assay: Antibacterial activity: MIC/MBC, disc-diffusion; type: cell-based, Burkholderia cepacia; conditions: Burkholderia cepacia, ATCC25416; B. cepacia ATCC 25416; read-out: MIC
# Protocol: as §1, with “The following reference agents were used: fluconazole (in the case of fungi), linezolid (for Gram-positive bacteria), and nitrofurantoin (for Gram-negative rods).” left out
# as §2
# C. krusei ATCC 6258 = assay: Antifungal activity: MIC/MFC, disc-diffusion; type: cell-based; conditions: for diameter of inhibition zone: C. krusei ATCC 6258, (-) = zone not observed, paper discs 9 mm; for MIC: Pichia kudriavzevii, ATCC6258, read-out: MIC
# Protocol: as §1, with “The following reference agents were used: fluconazole (in the case of fungi), linezolid (for Gram-positive bacteria), and nitrofurantoin (for Gram-negative rods).” left out
# [4] = PAβN 20 μg mL^−1, MHB + 1 mM MgSO4
SMILES,MBC (E. faecium ATCC 6057),MIC (E. faecium ATCC 6057),MBC [1],MIC [1],MIC (E. coli ATCC 25922),MIC (P. mirabilis ATCC 12453),MIC (E. cloacae DSM 6234),MIC (S. marcescens ATCC 13880),MIC [2],MIC [3],MIC (B. cepacia ATCC 25416),diameter of inhibition zone (C. krusei ATCC 6258),MIC (C. krusei ATCC 6258),"diameter of inhibition zone (E. coli ATCC 25922; (-) = zone not observed, paper discs 9 mm)",-fold reduction of MIC in the presence of PAβN (E. coli ATCC 25922),-fold reduction of MIC in the presence of PAβN (E. cloacae DSM 6234; [4]),"-fold reduction of MIC in the presence of PAβN [2, 4]",-fold reduction of MIC in the presence of PAβN [3]
"C[Si]1(C)OB(O)c2cc(F)c(S)c(F)c21 [Compound 1e, 5,7-Difluoro-6-mercapto-1,1-dimethylbenzo[c][1,2,5]oxasilaborol-3(1H)-ol]",400 µg/mL,12.5 µg/mL,25 µg/mL,12.5 µg/mL,> 400 µg/mL,> 400 µg/mL,> 400 µg/mL,> 400 µg/mL,> 400 µg/mL,> 400 µg/mL,> 400 µg/mL,13 mm,400 µg/mL,,,,,
"C[Si]1(C)OB(O)c2ccc(S)c(F)c21 [Compound 2e, 7-Fluoro-6-mercapto-1,1-dimethylbenzo[c][1,2,5]oxasilaborol-3(1H)-ol]",,12.5 µg/mL,25 µg/mL,12.5 µg/mL,> 100 µg/mL,> 100 µg/mL,> 100 µg/mL,> 100 µg/mL,> 100 µg/mL,> 100 µg/mL,> 100 µg/mL,,> 100 µg/mL,,,,,
"CC(=O)CCSc1c(F)cc2c(c1F)[Si](C)(C)OB2O [Compound 3, 4-((5,7-Difluoro-3-hydroxy-1,1-dimethyl-1,3-dihydrobenzo[c][1,2,5]oxasilaborol-6-yl)thio)butan-2-one]",200 µg/mL,12.5 µg/mL,200 µg/mL,50 µg/mL,> 400 µg/mL,> 400 µg/mL,> 400 µg/mL,> 400 µg/mL,200 µg/mL,400 µg/mL,> 400 µg/mL,,200 µg/mL,,,,,
"COC(=O)CCSc1ccc2c(c1F)[Si](C)(C)OB2O [Compound 4, Methyl 3-((7-fluoro-3-hydroxy-1,1-dimethyl-1,3-dihydrobenzo[c][1,2,5]oxasilaborol-6-yl)thio)propanoate]",,100 µg/mL,,12.5 µg/mL,400 µg/mL,> 400 µg/mL,> 400 µg/mL,> 400 µg/mL,> 400 µg/mL,> 400 µg/mL,> 400 µg/mL,12 mm,200 µg/mL,15 mm,8 -fold,8 -fold,2 -fold,2 -fold
"C[Si]1(C)OB(O)c2cc(F)c(SCCC(=O)ON3C(=O)CCC3=O)c(F)c21 [Compound 5, 2,5-Dioxopyrrolidin-1-yl 3-((5,7-difluoro-3-hydroxy-1,1-dimethyl-1,3-dihydrobenzo-[c][1,2,5]oxasilaborol-6-yl)thio)propanoate]",,400 µg/mL,,400 µg/mL,> 400 µg/mL,> 400 µg/mL,> 400 µg/mL,> 400 µg/mL,> 400 µg/mL,> 400 µg/mL,> 400 µg/mL,,> 400 µg/mL,,,,,
"C[Si]1(C)OB(O)c2cc(F)c(SCCC#N)c(F)c21 [Compound 6, 3-((5,7-Difluoro-3-hydroxy-1,1-dimethyl-1,3-dihydrobenzo[c][1,2,5]oxasilaborol-6-yl)thio)propanenitrile]",,400 µg/mL,> 400 µg/mL,12.5 µg/mL,> 400 µg/mL,> 400 µg/mL,> 400 µg/mL,> 400 µg/mL,> 400 µg/mL,> 400 µg/mL,> 400 µg/mL,,> 400 µg/mL,,2 -fold,,,2 -fold
"C[Si]1(C)OB(O)c2cc(F)c(SCCC(N)=O)c(F)c21 [Compound 7, 3-((5,7-Difluoro-3-hydroxy-1,1-dimethyl-1,3-dihydrobenzo[c][1,2,5]oxasilaborol-6-yl)thio)propanamide]",,200 µg/mL,,100 µg/mL,> 400 µg/mL,> 400 µg/mL,> 400 µg/mL,> 400 µg/mL,> 400 µg/mL,> 400 µg/mL,> 400 µg/mL,,> 400 µg/mL,,4 -fold,,,
"C[Si]1(C)OB(O)c2cc(F)c(SCCC(=O)N3CCOCC3)c(F)c21 [Compound 8, 3-((5,7-Difluoro-3-hydroxy-1,1-dimethyl-1,3-dihydrobenzo[c][1,2,5]oxasilaborol-6-yl)thio)-1-morpholinopropan-1-one]",,200 µg/mL,,50 µg/mL,> 400 µg/mL,> 400 µg/mL,> 400 µg/mL,> 400 µg/mL,> 400 µg/mL,> 400 µg/mL,> 400 µg/mL,,> 400 µg/mL,,,,,
"C[Si]1(C)OB(O)c2cc(F)c(S(=O)(=O)N3CCOCC3)c(F)c21 [Compound 29, 5,7-Difluoro-1,1-dimethyl-6-(morpholinosulfonyl)benzo[c][1,2,5]oxasilaborol-3(1H)-ol]",,400 µg/mL,,400 µg/mL,> 400 µg/mL,> 400 µg/mL,> 400 µg/mL,> 400 µg/mL,> 400 µg/mL,> 400 µg/mL,> 400 µg/mL,,,,2 -fold,,,
